The target of test [1] is T1, R99A EcDXPS (Escherichia coli, UniProt P77488, R99A).
T1 construct: made in house
Put plainly: IC50 determination for 8 on R99A EcDXPS variant. The format is biochemical. The settings on record: 400 nM DXPS, 2 × Km pyruvate, 10 × Km D-GAP. As for the experimental part:
EcDXPS and IspC were preincubated with inhibitor for 10 min at 25 °C in assay reaction buffer (100 mM HEPES pH 8, 2 mM MgCl2, 5 mM NaCl, 1 mM ThDP, and 200 μM NADPH). Enzyme concentrations for variants were as follows: 200 nM DXPS (wildtype EcDXPS) and 4 μM IspC; 400 nM DXPS (R99A and R478A EcDXPS) and 6 μM IspC. The reaction was initiated by the addition of substrates at final concentrations of 2 × Km pyruvate and 10 × KmD-GAP. NADPH consumption was monitored at 340 nm for 10 min at 25 °C. The initial rate of NADPH consumption was used to determine the initial rate of DXP formation catalyzed by DXPS. Experiments were performed in triplicate and error bars represented standard error.

In test [2] the target is T1, R99A EcDXPS. The test can be described thus: Circular dichroism titration (PLThDP formation, apparent KD) on R99A EcDXPS. The format is binding. As for the experimental part: CD titrations of 8 and 10 onto WT, R99A, and R478A EcDXPS variants were conducted at 25 °C under aerobic conditions in 1.5 mL solutions containing 30 μM EcDXPS in 50 mM HEPES pH 8, 100 mM NaCl, 1 mM MgCl2, and 0.2 mM ThDP. Scans were obtained from 280 to 400 nm with a 0.5 s averaging time and 1 nm step following a titration of inhibitor (8: 0.25–30 μM on WT, 0.5–30 μM on R99A and R478A; 10 2.5–30 μM on WT, R99A, and R478A), with a 5 min preincubation of inhibitor with DXPS prior to scanning. […] The CD signals at 294 nm determined from the difference spectra obtained by subtracting the signal of E-ThDP at 294 nm were plotted as a function of [inhibitor] and fit to (1) the quadratic equation described in eq 2 (8 on WT DXPS), where E is the concentration of DXPS taking into account stoichiometric binding and CDmax is the maximal CD signal, or (2) a one-site specific binding curve (all other experiments) using GraphPad Prism Version 9 to calculate an apparent KD. Experiments were conducted in triplicate and the standard error was calculated. [drawing 2] 2
At the conclusion of the titration described above, the CD signal at 313 nm (previously characterized for LThDP) was recorded. Pyruvate (1 mM) was then added to the mixture, and a CD scan of the resulting solution was conducted as described above, to detect shifts in the CD spectrum that may correlate to LThDP formation. Experiments were conducted in triplicate.

For another test, the target named is T2, EcDXPS (Escherichia coli, UniProt P77488).
T2 construct: made in house
Put plainly: DXPS-IspC coupled assay, apparent Ki on wildtype EcDXPS. The format is biochemical. The settings on record: EcDXPS 100 nM, 10 min preincubation; Morrison equation fit; read-out: Ki^app. As for the experimental part:
To determine inhibitor potency, we used the DXPS-DXP reductoisomerae (DXPS-IspC) coupled assay to measure the activity of recombinant purified EcDXPS[24],[25],[31],[44],[50] in the presence of inhibitors. Reactions were initiated by the addition of substrates following a short preincubation of the inhibitor with enzymes, and initial velocities were determined by monitoring reduced nicotinamide adenine dinucleotide phosphate (NADPH) absorbance at 340 nm. Apparent Ki values were determined by fitting initial velocity data to the Morrison equation,[64],[65] which accounts for the tight-binding nature (Ki^app/[E]total < 10)[66] of inhibitors included in this study and allows for rigorous comparison of inhibitor potencies. […] Inhibitor activities were rationalized based on the predictions made from molecular docking of the corresponding PLThDP adducts into the DXPS active site.
All compounds in this study were evaluated as DXPS inhibitors using the DXPS-IspC coupled assay as previously reported.[24] […] The DXPS reaction was initiated by the addition of substrates (50 μM pyruvate and 500 μM D-GAP). The initial rate of depletion of NADPH was monitored at 340 nm and was used to calculate the initial rate of DXP formation in the presence or absence of inhibitor. Initial rates of DXP formation were plotted as a function of [inhibitor], and Ki^app was determined by fitting the data to the Morrison equation (eq 1)[64],[65] in GraphPad Prism. This approach was deemed appropriate as the concentration of free inhibitor cannot be assumed to remain constant for most of these analogs in which Ki^app values approach the concentration of DXPS.[88],[89] Error is reported as standard deviation from three replicates. Active enzyme concentration ([E]T) was determined following Copeland’s method using 8 (Figure S2B).[88]
The coupled assay was initiated by adding 20 μL of a 10× substrate stock to the preincubated E + I mixture to give a final volume of 200 μL. The final concentration of D-GAP was held constant at 500 μM, and [pyruvate] was added to final concentrations between 0 and 250 μM. The initial rate of NADPH depletion in the IspC-coupled reaction was monitored at 340 nm and was used to calculate the initial rate of DXP formation in the presence or absence of inhibitor. Initial rates were plotted as a function of [pyruvate]. […] Model discrimination analysis employing the Akaike information criterion was performed as well as Lineweaver–Burk analysis to determine the mixed model as the best fit. In all cases, error bars represent the standard deviation from three replicates.

Take `CC(=O)P(=O)(O)OCCc1cn(C(Cc2ccccc2)(Cc2ccccc2)C(=O)O)nn1` [Compound 8]: the IC50 on R99A EcDXPS [1] came to 3.007 ± 0.015 µM. The Kd at R99A EcDXPS [2] came to 19 ± 3 µM. Moreover, the “change in PLThDP CD signal upon addition of pyruvate” value on R99A EcDXPS [2] (R99A-PLThDP complex) is listed as “shift in the CD profile toward the characteristic LThDP signal”. Also, the Ki at EcDXPS is 0.0029 ± 0.0005 µM.
